Type in all cases: binding
For one assay, the target named is T1, OsSPX4–OsPHR2 (Oryza sativa, UniProt Q10B79).
T1 construct: gene SPX4; OsSPX4 1-321 (cloning sentence prints OsSPX2 1-321, purification OsSPX4 1-321; His-Strep-Sumo tag cleaved) with full-length OsPHR2 1-426 (His-Strep-GB1 tag, TEV cleaved); E. coli; with Protein PHOSPHATE STARVATION RESPONSE 2
The experiment in a line: isothermal titration calorimetry. (In general: Isothermal titration calorimetry measures the heat released or taken up as one component is titrated into another.)

Assay [1] concerns the target T2, AtPHR1^280–360 (Arabidopsis thaliana, UniProt Q94CL7, K325A/H328A/R335A).
T2 construct: gene PHR1; coiled-coil domain fragment, residues 280-360, 6xHis tag cleaved by TEV, 15N,2H-labeled, E. coli
The assay is described as follows: […] TROSY NMR titration. The conditions noted are these: 25 mM HEPES pH 7.0, 200 mM NaCl, 0.5 mM TCEP, 30 °C.

For assay [2], the target named is T3, AtPHR1^280–360 (Arabidopsis thaliana, UniProt Q94CL7).
T3 construct: gene PHR1; coiled-coil domain fragment, residues 280-360, 6xHis tag cleaved by TEV, 15N,2H-labeled, E. coli
The assay is described as follows: […] TROSY NMR titration. To be noted: 25 mM HEPES pH 7.0, 200 mM NaCl, 0.5 mM TCEP, 30 °C.

T1 sequence (Q10B79 whole entry): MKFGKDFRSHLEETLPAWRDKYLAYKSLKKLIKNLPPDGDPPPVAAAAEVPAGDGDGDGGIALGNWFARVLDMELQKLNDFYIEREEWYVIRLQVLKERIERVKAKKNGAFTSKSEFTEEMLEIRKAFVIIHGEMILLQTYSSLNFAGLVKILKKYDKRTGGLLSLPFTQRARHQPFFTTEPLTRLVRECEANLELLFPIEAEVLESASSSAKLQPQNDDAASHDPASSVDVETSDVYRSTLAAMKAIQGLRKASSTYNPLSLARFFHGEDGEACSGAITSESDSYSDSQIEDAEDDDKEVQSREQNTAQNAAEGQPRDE
T1 sequence (Q6Z156 whole entry partner): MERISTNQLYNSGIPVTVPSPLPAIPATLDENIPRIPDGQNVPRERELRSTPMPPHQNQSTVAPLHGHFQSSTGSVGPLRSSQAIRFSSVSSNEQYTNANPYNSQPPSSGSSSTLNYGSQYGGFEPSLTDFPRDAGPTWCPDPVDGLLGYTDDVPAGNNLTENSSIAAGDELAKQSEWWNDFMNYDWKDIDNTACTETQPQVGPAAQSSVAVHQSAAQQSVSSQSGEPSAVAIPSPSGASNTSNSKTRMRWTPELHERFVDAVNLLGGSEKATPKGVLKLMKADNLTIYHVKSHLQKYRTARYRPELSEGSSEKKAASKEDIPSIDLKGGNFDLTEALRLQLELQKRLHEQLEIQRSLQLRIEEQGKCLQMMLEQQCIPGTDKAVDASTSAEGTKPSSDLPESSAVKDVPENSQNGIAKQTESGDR
T3 sequence (Q94CL7 280-360): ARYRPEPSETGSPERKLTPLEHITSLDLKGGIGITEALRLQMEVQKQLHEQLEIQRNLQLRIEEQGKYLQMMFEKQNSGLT
T2 sequence (Q94CL7 280-360 K325A/H328A/R335A): as the sequence (Q94CL7 280-360) above, with K46A, H49A, R56A counted along it

One may read the Kd as the free concentration of one partner at which half of the binding sites on the other are occupied at equilibrium, for simple one-to-one binding. The low end stands for a tighter complex, the high end for a looser complex. `O=P(O)(O)O[C@H]1[C@@H](OP(=O)(O)O)[C@H](OP(=O)(O)O)[C@@H](OP(=O)(O)OP(=O)(O)O)[C@H](OP(=O)(O)O)[C@H]1OP(=O)(O)O` [InsP7]: the Kd at OsSPX4–OsPHR2 was roughly 7 µM.

As to `O=P(O)(O)O[C@@H]1[C@@H](OP(=O)(O)O)[C@H](OP(=O)(O)OP(=O)(O)O)[C@@H](OP(=O)(O)O)[C@H](OP(=O)(O)OP(=O)(O)O)[C@@H]1OP(=O)(O)O` [InsP8], the KD result was “repeated the same set of experiments using the AtPHR1^KHR/A mutant protein” at AtPHR1^280–360 [1]; “The derived dissociation constant is in the millimolar range and saturation could not be reached” on AtPHR1^280–360 [2]. Further, the Kd at OsSPX4–OsPHR2 is roughly 3 µM.

(Values after article PMC7810988, “Inositol pyrophosphates promote the interaction of SPX domains with the coiled-coil motif of PHR transcription factors to regulate plant phosphate homeostasis” (Nature Communications, 2021).)
